Measurements reported in patent US20050197350A1, “Novel quinoline, tetrahydroquinazoline, and pyrimidine derivatives and methods of treatment related to the use thereof” (TAISHO PHARMACEUTICAL CO., LTD., priority 2003, published 2005).
pIC50: −log10 of the molar value. Counter-ions that a name gives are not always drawn.

Target: MCH receptor (Homo sapiens, UniProt Q99705)
Assay: High throughput functional screening FLIPR/FDSS6000 (intracellular Ca2+ evoked by MCH)
Type: cell-based
Conditions: FLIPR/FDSS, antagonist activity vs 50 nM MCH; class by percent of control at 10^−7 M or IC50; read-out: class
Procedure, shortened: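 For antagonist testing, compound-treated cells (30 min, 37 °C) were stimulated with 50 nM MCH and intracellular Ca2+ followed by Fluo4 fluorescence on FLIPR/FDSS6000. Receptor was a constitutively active, non-endogenous MCH receptor; dye loading 4 μM Fluo4-AM, 1 h, 37 °C.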

pIC50 | Structure (SMILES)
6.70 to 7.30 | Cc1cnc(N[C@H]2CC[C@@H](NC(=O)N(C)c3ccccc3Cl)CC2)nc1N(C)C [Example 3347, N-(2-chlorophenyl)-N′-(cis-4-{[4-(dimethylamino)-5-methylpyrimidin-2-yl]amino}cyclohexyl)-N-methylurea]
> 7.30 | Cc1cnc(N[C@H]2CC[C@@H](NC(=O)[C@@H]3C[C@H]3c3ccc(Cl)c(Cl)c3)CC2)nc1N(C)C (relative stereo) [Example 3319, trans-2-(3,4-dichlorophenyl)-N-(cis-4-{[4-(dimethylamino)-5-methylpyrimidin-2-yl]amino}cyclohexyl)-cyclopropanecarboxamide]
< 6.70 | CNc1nc(N[C@H]2CC[C@@H](NC(=O)COc3cc(C(F)(F)F)nn3C)CC2)ncc1C [Example 3362, N-(cis-4-{[5-methyl-4-(methylamino)pyrimidin-2-yl]amino}-cyclohexyl)-2-{[1-methyl-3-(trifluoromethyl)-1H-pyrazol-5-yl]oxy}acetamide]
6.70 to 7.30 | Cc1cnc(N[C@H]2CC[C@@H](NC(=O)N(C)C3(c4ccc(Cl)cc4)CC3)CC2)nc1N(C)C [Example 3271, N-[1-(4-chlorophenyl)cyclopropyl]-N′-(cis-4-{[4-(dimethylamino)-5-methylpyrimidin-2-yl]amino}cyclohexyl)-N-methylurea]
6.70 to 7.30 | Cc1cnc(N[C@H]2CC[C@@H](C(=O)N[C@H](C)c3ccc(Br)cc3)CC2)nc1N(C)C [Example 3297, cis-N-[(1R)-1-(4-bromophenyl)ethyl]-4-{[4-(dimethylamino)-5-methylpyrimidin-2-yl]amino}cyclohexanecarboxamide]
> 7.30 | Cc1cc(N[C@H]2CC[C@@H](C(=O)N[C@H](C)c3cccc(C(F)(F)F)c3)CC2)nc2ccccc12 [Example 3307, cis-4-[(4-methylquinolin-2-yl)amino]-N-{(1R)-1-[3-(trifluoromethyl)phenyl]ethyl}cyclohexanecarboxamide]
< 6.70 | CNc1nc(N[C@H]2CC[C@@H](NC(=O)COc3cc(C(F)(F)F)n(C)n3)CC2)ncc1C [Example 3364, N-(cis-4-{[5-methyl-4-(methylamino)pyrimidin-2-yl]amino}-cyclohexyl)-2-{[1-methyl-5-(trifluoromethyl)-1H-pyrazol-3-yl]oxy}acetamide]
> 7.30 | Cc1cnc(N[C@H]2CC[C@@H](NC(=O)c3cccnc3S(=O)(=O)c3ccc(Cl)cc3)CC2)nc1N(C)C [Example 3282, 2-[(4-chlorophenyl)sulfonyl]-N-(cis-4-{[4-(dimethylamino)-5-methylpyrimidin-2-yl]amino}cyclohexyl)nicotinamide]
6.70 to 7.30 | Cc1cnc(N[C@H]2CC[C@@H](NC(=O)Nc3cc(C(F)(F)F)cc(C(F)(F)F)c3)CC2)nc1N(C)C [Example 3334, N-[3,5-bis(trifluoromethyl)phenyl]-N′-(cis-4-{[4-(dimethylamino)-5-methylpyrimidin-2-yl]amino}cyclohexyl)urea]
6.70 to 7.30 | Cc1cc(N(C)C)nc(N[C@H]2CC[C@@H](NC(=O)N(C)C(C)(C)c3ccc(Cl)cc3)CC2)n1 [Example 3270, N-[1-(4-chiorophenyl)-1-methylethyl]-N′-(cis-4-{[4-(dimethylamino)-6-methylpyrimidin-2-yl]amino}cyclohexyl)-N-methylurea]

Same assay, conditions: FLIPR/FDSS, antagonist activity vs 50 nM MCH; class by percent of control at 10^−7 M or IC50; table after the classification; read-out: class

Structure (SMILES) | pIC50
N#Cc1cccc(C(=O)N[C@H]2CC[C@@H](Nc3ccc4ccccc4n3)CC2)c1 [Example 3049, 3-Cyano-N-[cis-4-(quinolin-2-ylamino)-cyclohexyl]-benzamide hydrochloride] | > 7.30
COc1ccnc(N[C@H]2CC[C@@H](NC(=O)c3cccnc3Oc3ccccc3)CC2)n1 [Example 3134, N-[cis-4-(4-Methoxy-pyrimidin-2-ylamino)-cyclohexyl]-2-phenoxy-nicotinamide hydrochloride] | < 6.70
CNc1nc(N[C@H]2CC[C@@H](C(N)Cc3ccccc3OC(F)(F)F)CC2)nc2c1CCCC2 (relative stereo) [Example 12, N^4-Methyl-N^2-{cis-4-[(2-trifluoromethoxy-benzyl)-amino-methyl]-cyclohexyl}-5,6,7,8-tetrahydro-quinazoline-2,4-diamine dihydrochloride] | 6.70 to 7.30
Cc1cc(N[C@H]2CC[C@@H](NC(=O)c3cccnc3Oc3ccc(Br)cc3)CC2)nc2ccccc12 [Example 3094, 2-(4-Bromo-phenoxy)-N-[cis-4-(4-methyl-quinolin-2-ylamino)-cyclohexyl]-nicotinamide hydrochloride] | > 7.30
Cc1cc(N[C@H]2CC[C@@H](NC(=O)c3cccnc3Oc3ccccc3)CC2)nc2ccccc12 [Example 3070, N-[cis-4-(4-Methylquinolin-2-ylamino)-cyclohexyl]-2-phenoxy-nicotinamide hydrochloride] | > 7.30
O=C(N[C@H]1CC[C@@H](Nc2cc(C(F)(F)F)c3ccccc3n2)CC1)c1ccc(F)c(F)c1 [Example 3237, 3,4-Difluoro-N-[cis-4-(4-trifluoromethyl-quinolin-2-yl)-amino-cyclohexyl]-benzamide hydrochloride] | < 6.70
Cc1cc(N[C@H]2CC[C@@H](NC(=O)c3cccc(OC(F)(F)F)c3)CC2)nc2ccccc12 [Example 3158, N-[cis-4-(4-Methyl-quinolin-2-ylamino)-cyclohexyl]-3-trifluoromethoxy-benzamide hydrochloride] | > 7.30
O=C(N[C@H]1CC[C@@H](Nc2cc(Cl)c3ccccc3n2)CC1)c1ccc(F)c(F)c1 [Example 3117, N-[cis-4-(4-Chloro-quinolin-2-ylamino)-cyclohexyl]-3,4-difluoro-benzamide hydrochloride] | > 7.30
Cc1cc(N[C@H]2CC[C@@H](NC(=O)c3cccnc3Oc3ccc(F)c(F)c3)CC2)nc2ccccc12 [Example 3091, 2-(3,4-Difluoro-phenoxy)-N-[cis-4-(4-methyl-quinolin-2-ylamino)-cyclohexyl]-nicotinamide hydrochloride] | > 7.30
O=C(N[C@H]1CC[C@@H](Nc2ccc3ccccc3n2)CC1)c1cccnc1Cl [Example 3037, 2-Chloro-N-[cis-4-(quinolin-2-ylamino)-cyclohexyl]-nicotinamide hydrochloride] | < 6.70
CN(C)c1cc(N[C@H]2CC[C@@H](CNCc3ccc(Br)cc3OC(F)(F)F)CC2)nc2ccccc12 [Example 7, N^2-{cis-4-[(4-Bromo-2-trifluoromethoxy-benzyl)amino-methyl]-cyclohexyl}-N^4,N^4-dimethyl-quinoline-2,4-diamine dihydrochloride] | > 7.30
O=C(NC[C@H]1CC[C@@H](Nc2ccc3ccccc3n2)CC1)c1cccnc1Oc1ccccc1 [Example 3069, 2-Phenoxy-N-[cis-4-(quinolin-2-ylamino)-cyclohexylmethyl]-nicotinamide hydrochloride] | 6.70 to 7.30
CN(C)c1cc(N[C@H]2CC[C@@H](NCc3ccc(Br)cc3OC(F)(F)F)CC2)nc2ccccc12 [Example 5, N^2-[cis-4-(4-Bromo-2-trifluoromethoxy-benzyl)-amino-cyclohexyl]-N^4,N^4-dimethyl-quinoline-2,4-diamine dihydrochloride] | 6.70 to 7.30
O=C(N[C@H]1CC[C@@H](Nc2ccc3ccccc3n2)CC1)c1ccc(Br)o1 [Example 3053, 5-Bromo-furan-2-carboxylic acid [cis-4-(quinolin-2-ylamino)-cyclohexyl]-amide hydrochloride] | > 7.30
Cc1cc(N[C@H]2CC[C@@H](CNC(=O)c3cccnc3Oc3ccccc3)CC2)nc2ccccc12 [Example 3105, N-[cis-4-(4-Methylquinolin-2-ylamino)-cyclohexylmethyl]-2-phenoxy-nicotinamide hydrochloride] | 6.70 to 7.30

Next, values leading:

pIC50 | Structure (SMILES)
> 7.30 | CN(C)c1cc(N[C@H]2CC[C@@H](NC(=O)c3ccc(F)c(F)c3)CC2)nc2ccccc12 [Example 3188, N-[cis-4-(4-Dimethylamino-quinolin-2-ylamino)-cyclohexyl]-3,4-difluoro-benzamide hydrochloride]
> 7.30 | Cc1cc(C(=O)N[C@H]2CC[C@@H](Nc3cc(C)c4ccccc4n3)CC2)ccc1F [Example 3080, 4-Fluoro-3-methyl-N-[cis-4-(4-methyl-quinolin-2-ylamino)-cyclohexyl]-benzamide hydrochloride]
6.70 to 7.30 | CNc1ccnc(N[C@H]2CC[C@@H](NC(=O)c3ccc(F)c(Cl)c3)CC2)n1 [Example 3224, 3-Chloro-4-fluoro-N-[cis-4-(4-methylamino-pyrimidin-2-ylamino)-cyclohexyl]-benzamide hydrochloride]
> 7.30 | Cc1cc(N(C)C)nc(N[C@H]2CC[C@@H](NC(=O)c3ccc(Cl)c(F)c3)CC2)n1 [Example 3383, 4-Chloro-N-[cis-4-(4-dimethylamino6-methyl-pyrimidin-2-ylamino)-cyclohexyl]3-fluoro-benzamide hydrochloride]
> 7.30 | Cc1cnc(N[C@H]2CC[C@@H](NC(=O)Cc3ccc(F)c(F)c3)CC2)nc1N(C)C [Example 3391, 2-(3,4-Difluoro-phenyl)-N-[cis-4-(4-dimethylamino-5-methyl-pyrimidin-2-ylamino)-cyclohexyl]-acetamide hydrochloride]
< 6.70 | COc1ccnc(N[C@H]2CC[C@@H](NC(=O)c3ccc(F)c(F)c3)CC2)n1 [Example 3131, 3,4-Difluoro-N-[cis-4-(4-methoxy-pyrimidin-2-ylamino)-cyclohexyl]-benzamide hydrochloride]
> 7.30 | CN(C)c1cc(N[C@H]2CC[C@@H](NC(=O)c3csc([N+](=O)[O-])c3)CC2)nc2ccccc12 [Example 3189, 5-Nitro-thiophene-3-carboxylic acid [cis-4-(4-dimethylamino-quinolin-2-ylamino)-cyclohexyl]-amide hydrochloride]

Same assay, conditions: FLIPR/FDSS, antagonist activity vs 50 nM MCH; representative examples; read-out: IC50

pIC50 | Structure (SMILES)
7.96 | CN(C)c1cc(N[C@H]2CC[C@@H](CNCc3ccc(Br)cc3OC(F)(F)F)CC2)nc2ccccc12 [Example 7, N^2-{cis-4-[(4-Bromo-2-trifluoromethoxy-benzyl)amino-methyl]-cyclohexyl}-N^4,N^4-dimethyl-quinoline-2,4-diamine dihydrochloride]
